This is an account of results in patent US20210043958A1, “AQUEOUS COMPOSITION AS ELECTROLYTE COMPRISING IONIC LIQUIDS OR LITHIUM SALTS” (KIST EUROPE FORSCHUNGSGESELLSCHAFT MBH, priority 2018, published 2021).

Data set [1] is described as follows: Solubility of organic compounds in supporting electrolyte at room temperature. The following applies: for solubility: thermodynamic from solid. The class given is physicochemical. The source says: The last recorded amount was recognized as the solubility of the organics.
Data set [2] can be described thus: Cyclic voltammetry in three-electrode cell (glassy carbon / Pt foil / Ag wire). The class given is physicochemical. The source says:
FIGS. 2a and 2b compare cyclic voltammetry curves of 0.1 M 2-methoxyhydroquinone in pure water and other aqueous ionic liquid, aqueous lithium salt (molality: 10 m), with and without the addition of 1 M HCl. Potential sweep rate: 50 mV s^−1. Working electrode: glassy carbon; Counter electrode: Pt foil; Reference electrode: Ag wire.
FIG. 5a depicts the chemical structure of 2-[(2,5-dihydroxyphenyl)sulfanyl]ethan-1-aminium chloride. FIGS. 5b and 5c show the cyclic voltammetry curves of 0.1 M 2-[(2,5-dihydroxyphenyl) sulfanyl]ethan-1-amonium chloride in pure water and in 1 M HCl. Potential sweep rate: 20 mV s^−1. Working electrode: glassy carbon; Counter electrode: Pt foil; Reference electrode: Ag wire.
FIGS. 6a and 6b compare the cyclic voltammetry curves of 0.1 M 2-[(2,5-dihydroxyphenyl) sulfanyl]ethan-1-amonium chloride in concentrated LiTFSI and BMImCl without and with the addition of 1 M HCl. Potential sweep rate: 20 mV s^−1. Working electrode: glassy carbon; Counter electrode: Pt foil; Reference electrode: Ag wire.
CV measurements were performed in a three-electrode cell consisting of a glassy carbon rod working electrode, a platinum foil counter electrode and a silver wire quasi-reference electrode. CV measurements of 2-methoxyhydroquinone in water (FIG. 2a) and different aqueous ionic liquids and salt (FIG. 2b) were performed.
For the CV measurement in water, KCl was added as supporting salt. […] The average redox potential in water is 0.27 V vs. Ag but with large peak separation of 0.64 V (FIG. 2a).

The mark [3] stands for this setting: 10 m BMImCl-H2O, aqueous with cosolvent or surfactant or cyclodextrin, BMImCl—H2O (10 m / concentrated), neutral, no additive.
Setting [4] is: 0.1 M in BMImCl—H2O, 20 mV s^−1.
Where [5] appears, read: 0.1 M in LiTFSI—H2O, 20 mV s^−1.
[6] abbreviates: 10 m BMImCl-H2O, aqueous with cosolvent or surfactant or cyclodextrin, 10 m BMImCl-H2O, a: without additive.
The mark [7] stands for this setting: 10 m LiTFSI-H2O, aqueous with cosolvent or surfactant or cyclodextrin, 10 m LiTFSI-H2O, a: without additive.
Setting [8] is: 10 m LiTFSI-H2O, aqueous with cosolvent or surfactant or cyclodextrin, LiTFSI—H2O (10 m), neutral, no additive.
[9] abbreviates: 10 m TBACl-H2O, aqueous with cosolvent or surfactant or cyclodextrin, 10 m TBACl-H2O, a: without additive.
The mark [10] stands for this setting: water, H2O, a: without additive.
[11] abbreviates: 0.1 M in 10 m BMImCl—H2O, 50 mV s^−1.
Where [12] appears, read: 0.1 M in 10 m LiTFSI—H2O, 50 mV s^−1.
The mark [13] stands for this setting: 0.1 M in 10 m TBACl—H2O, 50 mV s^−1.
The mark [14] stands for this setting: 0.1 M in water, KCl supporting salt, 50 mV s^−1.
Where [15] appears, read: BMImCl—H2O, acidic conditions (1 M HCl).
Where [16] appears, read: LiTFSI—H2O, acidic conditions (1 M HCl).
The mark [17] stands for this setting: TBACl—H2O, acidic conditions (1 M HCl).
Where [18] appears, read: water, acidic conditions (1 M HCl).

≈ marks a conversion by molar mass, not a printed value.

What is called solubility is the concentration that dissolves in the medium under given conditions. A higher solubility goes with a readily soluble substance.

Take `Cl.NCCSc1cc(O)ccc1O` [2-[(2,5-dihydroxyphenyl)sulfanyl]ethan-1-aminium chloride]: the solubility turned out to be 1200 mM in data set [1] (setting [3]); 900 mM in data set [1] (acidic BMImCl-H2O, aqueous with cosolvent or surfactant or cyclodextrin, acidic BMImCl—H2O); 2000 mM in data set [1] (pure water). Moreover, the “average oxidation and reduction potential” value is listed as 0.61 V in data set [2] (0.1 M in BMImCl—H2O with addition of HCl (1 M), 20 mV s^−1) and 0.50 V vs. Ag in data set [2] (setting [4]). The peak separation in data set [2] (setting [4]) is 0.61 V. In addition, in data set [2] (0.1 M in BMImCl—H2O, with vs. without HCl (1 M)), the “reduction of peak separation on addition of HCl” value came out at 0.07 V. The molecule further showed an oxidation peak in data set [2] (setting [5]) of 0.70 V vs. Ag. For the same molecule, the reduction peak in data set [2] (setting [5]) turned out to be 0.08 V vs. Ag. For the same molecule, in data set [2] (0.1 M in pure water and in 1 M HCl, 20 mV s^−1), the redox reversibility entry is recorded as “poor redox reversibility”. Further, the stability and reversibility entry in data set [2] (in aqueous ionic liquids or lithium salt) is “excellent stability and reversibility”. The “chemical and electrochemical stability” value in data set [2] (in water) is “chemically and electrochemically instable”.

As for `COc1cc(C=O)ccc1O` [vanillin, Vanillin], the solubility stood at 4000 mM (≈ 609 mg/mL) in data set [1] (setting [6]); 4000 mM (≈ 609 mg/mL) in data set [1] (setting [3]); 4000 mM (≈ 609 mg/mL) in data set [1] (setting [7]); 4000 mM (≈ 609 mg/mL) in data set [1] (setting [8]); 4000 mM (≈ 609 mg/mL) in data set [1] (setting [9]); 4000 mM (≈ 609 mg/mL) in data set [1] (TBACl-H2O, aqueous with cosolvent or surfactant or cyclodextrin, TBACl—H2O). In data set [1] (setting [10]), the solubility is < 100 mM. Further, the “Solubility (in words)” value in data set [1] (water) is on record as “slightly soluble”.

On to `COc1cc(O)ccc1O` [2-methoxyhydroquinone], for which the solubility in data set [1] (setting [3]) was 6000 mM (≈ 841 mg/mL); in data set [1] (setting [8]), 4200 mM (≈ 589 mg/mL); in data set [1] (pure water, water), 1800 mM (≈ 252 mg/mL). Moreover, the average redox potential turned out to be 0.51 V vs. Ag in data set [2] (setting [11]); 0.38 V vs. Ag in data set [2] (setting [12]); 0.54 V vs. Ag in data set [2] (setting [13]); 0.27 V vs. Ag in data set [2] (setting [14]); 0.50 V vs. Ag in data set [2] (10 m BMImCl—H2O with H3PO4 from 1 M to 3 M). In addition, the peak separation in data set [2] (setting [11]) came to 0.53 V; in data set [2] (setting [12]) it was 0.48 V; in data set [2] (setting [14]), 0.64 V; in data set [2] (10 m BMImCl—H2O with 1 M H3PO4), 0.42 V; in data set [2] (setting [15]) it was 0.30 V; in data set [2] (setting [16]) it was 0.38 V. For the same molecule, the peak separation in data set [2] (setting [17]) is on record as 0.54 V; in data set [2] (setting [18]), 0.40 V. Besides, the “polarization (peak separation)” value in data set [2] (setting [13]) came to 0.87 V. The redox potential in data set [2] (setting [15]) is given as 0.58 V vs. Ag; in data set [2] (setting [16]), 0.55 V vs. Ag; in data set [2] (setting [17]), 0.58 V vs. Ag; in data set [2] (setting [18]) it was 0.35 V vs. Ag.

Consider `COc1cc(O)cc(OC)c1O` [2,6-dimethoxyhydroquinone], for which the solubility in data set [1] (10 m BMImCl-H2O with 1 M HCl, aqueous with cosolvent or surfactant or cyclodextrin, 10 m BMImCl-H2O, b: with 1 M HCl) was < 100 mM; in data set [1] (setting [6]) it was < 100 mM; in data set [1] (10 m LiTFSI-H2O with 1 M HCl, aqueous with cosolvent or surfactant or cyclodextrin, 10 m LiTFSI-H2O, b: with 1 M HCl) it was 500 mM (≈ 85.1 mg/mL); in data set [1] (setting [7]), 700 mM (≈ 119 mg/mL); in data set [1] (setting [8]), 700 mM (≈ 119 mg/mL); in data set [1] (10 m TBACl-H2O with 1 M HCl, aqueous with cosolvent or surfactant or cyclodextrin, 10 m TBACl-H2O, b: with 1 M HCl) it was 100 mM (≈ 17 mg/mL). In addition, the solubility in data set [1] (setting [9]) is 200 mM (≈ 34 mg/mL); in data set [1] (acidic LiTFSI-H2O, aqueous with cosolvent or surfactant or cyclodextrin, acidic LiTFSI—H2O), 500 mM (≈ 85.1 mg/mL); in data set [1] (water with 1 M HCl, aqueous buffer, H2O, b: with 1 M HCl), < 100 mM; in data set [1] (setting [10]) it was < 100 mM. In addition, the figures for the “Solubility (in words)” value in data set [1] (BMImCl—H2O), in data set [1] (TBACl—H2O) and in data set [1] (water) were “limited”, “limited” and “insoluble”, respectively.

On to `CC[N+](CC)(CC)Cc1ccc2c(c1)C(=O)c1ccccc1C2=O.[Br-]` [2-methanaminium-N,N,N-triethyl-9,10-anthraquinone bromide], for which the results for the “Solubility (in words)” value in data set [1] (5 m LiTFSI—H2O) and in data set [1] (15 m LiTFSI—H2O) were “poor” and “soluble”, respectively. Also, the solubility in data set [1] (setting [6]) is < 100 mM; in data set [1] (10 m LiTFSI with triethanolamine, aqueous with cosolvent or surfactant or cyclodextrin, 10 m LiTFSI with 0.3 g triethanolamine per milliliter) it was 300 mM; in data set [1] (setting [7]), 500 mM; in data set [1] (setting [8]) it was 500 mM; in data set [1] (10 m TBACl-H2O with triethanolamine, aqueous with cosolvent or surfactant or cyclodextrin, 10 m TBACl-H2O, c: with 0.3 g triethanolamine per mL solvent), < 100 mM; in data set [1] (setting [9]), < 100 mM. The solubility was < 100 mM in data set [1] (supporting electrolyte, aqueous with cosolvent or surfactant or cyclodextrin, 10 m BMImCl-H2O, c: with 0.3 g triethanolamine per mL solvent); 300 mM in data set [1] (supporting electrolyte, aqueous with cosolvent or surfactant or cyclodextrin, 10 m LiTFSI-H2O, c: with 0.3 g triethanolamine per mL solvent); < 100 mM in data set [1] (supporting electrolyte, aqueous with cosolvent or surfactant or cyclodextrin, H2O, c: with 0.3 g triethanolamine per mL solvent); < 100 mM in data set [1] (setting [10]).
